One block for each compound: values may come before it. Calls of active or inactive are those of the source. No cut-off for these calls is given here. Numbered stars: 1 amine (or outer) side, 2 acyl side, 3 side chain; on linkers, the order of the positions; unused ones are H or OH. Bridge positions count the residues as written; N and C are the ends. Square brackets hold non-standard residues; d marks the D form. Peptide text beside a SMILES is read from it. X1 = CC(C)[C@@H](CN[*:1])C(=O)[*:2]; S5 = C=CCCC[C@](C)(N)C(=O)O; Nle = CCCC[C@H](N)C(=O)O; Orn = NCCC[C@H](N)C(=O)O; βAla = NCCC(=O)O
How the values were obtained:
[1] = tested on: DNA; test: Inhibition of RpoN-mediated GlnAp2 transcription in Escherichia coli XL-1 Blue expressing GFP assessed as decrease in GFP levels at 10 uM incubated for 4 hrs under minimal nitrogen media by fluorescence based assay relative to control; assay type: nucleic-acid assay
[2] = Hemolytic activity in human RBC at 100 uM measured after 1 hrs relative to control; assay type: toxicity, cell-based, Erythrocyte; settings: red blood cells (erythrocytes), read-out: Activity
[3] = tested on: Pseudomonas aeruginosa; test: Antibacterial activity against Pseudomonas aeruginosa assessed as inhibition of cell growth upto 32 ug/ml incubated overnight by microtiter broth dilution assay; assay type: functional; settings: dose <= 32 µg/ml
[4] = Toxicity in Galleria mellonella larvae assessed as survivability at 10 mg/kg administered intra-hemocoelicly and measured after 24 hrs; assay type: organism-based; settings: in vivo, other
[5] = tested on: Pseudomonas aeruginosa; test: Antibacterial activity against Pseudomonas aeruginosa infected in Galleria mellonella larvae assessed as enhancement of survival rate at 10 mg/kg administered intra-hemocoelicly and measured after 24 hrs relative to control; assay type: functional
[6] = biological target: dsDNA; test: Binding affinity to FITC-labelled dsDNA (unknown origin) assessed as dissociation constant incubated for 10 mins by fluorescence polarization assay; assay type: nucleic-acid assay
[7] = tested on: DNA; test: Binding affinity to Escherichia coli GlnAp2 labelled with FITC assessed as dissociation constant incubated for 10 mins by fluorescence polarization assay; assay type: nucleic-acid assay
[8] = tested on: Pseudomonas aeruginosa; test: Antibacterial activity against Pseudomonas aeruginosa infected in Galleria mellonella larvae assessed as enhancement of survival rate at 10 mg/kg administered intra-hemocoelicly and measured after 36 hrs relative to control; assay type: functional

Structure (SMILES): CCCC[C@H](NC(=O)[C@H](CCC(=O)O)NC(=O)[C@H](CCCNC(=N)N)NC(=O)[C@@H](Cc1ccc(O)cc1)NC(=O)[C@H](CCCCN)NC(=O)[C@H](C)NC(=O)[C@]1(C)CCC/C=C\CCC[C@](C)(NC(=O)[C@@H](NC(=O)[C@H](CCCCN)NC(=O)CCNC(C)=O)C(C)C)C(=O)N[C@@H](CCCNC(=N)N)C(=O)N[C@@H](CCCNC(=N)N)C(=O)N[C@@H]([C@@H](C)O)C(=O)N1)C(=O)N[C@@H](CC(C)C)C(N)=O
inhibition [1]: Active

Structure (SMILES): CCCC[C@H](NC(=O)[C@H](CCC(=O)O)NC(=O)[C@H](CCCNC(=N)N)NC(=O)[C@H](Cc1ccc(O)cc1)NC(=O)[C@H](CCCCN)NC(=O)[C@H](C)NC(=O)[C@]1(C)CCC/C=C\CCC[C@](C)(NC(=O)[C@H](Cc2ccccc2)NC(=O)[C@H](CCCCN)NC(=O)[C@H](Cc2ccccc2)NC(=O)CCNC(C)=O)C(=O)N[C@@H](CCCNC(=N)N)C(=O)N[C@@H](CCCNC(=N)N)C(=O)N[C@@H]([C@@H](C)O)C(=O)N1)C(=O)N[C@@H](CC(C)C)C(N)=O (Ac-[βAla]FKF[S5]RRT[S5]AKYRE[Nle]L-NH2; staple (Z) 5-9)
inhibition [1]: Active

Structure (SMILES): CCCC[C@H](NC(=O)[C@H](CCC(=O)O)NC(=O)[C@H](CCCNC(=N)N)NC(=O)[C@H](Cc1ccc(O)cc1)NC(=O)[C@H](CCCCN)NC(=O)[C@H](C)NC(=O)[C@@H](NC(=O)[C@@H](NC(=O)[C@H](CCCNC(=N)N)NC(=O)[C@H](CCCNC(=N)N)NC(=O)[C@H](C)NC(=O)[C@@H](NC(=O)[C@H](CCCCN)NC(=O)[C@H](Cc1ccccc1)NC(=O)CCNC(C)=O)C(C)C)[C@@H](C)O)C(C)C)C(=O)N[C@@H](CC(C)C)C(N)=O (Ac-[βAla]FKVARRTVAKYRE[Nle]L-NH2)
hemolysis at 1 h, 100 µM [2]: 0.12%

Structure (SMILES): CCCC[C@H](NC(=O)[C@H](CCC(=O)O)NC(=O)[C@H](CCCNC(=N)N)NC(=O)[C@]1(C)CCC/C=C\CCC[C@](C)(NC(=O)[C@H](CCCNC(=N)N)NC(=O)[C@H](CCCNC(=N)N)NC(=O)[C@H](C)NC(=O)[C@@H](NC(=O)[C@H](CCCCN)NC(=O)[C@H](Cc2ccccc2)NC(=O)CCNC(C)=O)C(C)C)C(=O)N[C@@H](C(C)C)C(=O)N[C@@H](C)C(=O)N[C@@H](CCCCN)C(=O)N1)C(=O)N[C@@H](CC(C)C)C(N)=O (Ac-[βAla]FKVARR[S5]VAK[S5]RE[Nle]L-NH2; staple (Z) 8-12)
MIC [3]: > 32 µg/mL
Activity [4]: Non-Toxic
Activity [5]: Active
inhibition [1]: Active
hemolysis at 1 h, 100 µM [2]: 10.7%
Kd [6]: 366 nM

Structure (SMILES): CCCC[C@H](NC(=O)[C@H](CCC(=O)O)NC(=O)[C@H](CCCNC(=N)N)NC(=O)[C@H](Cc1ccc(O)cc1)NC(=O)[C@H](CCCCN)NC(=O)[C@H](C)NC(=O)[C@]1(C)CCC/C=C\CCC[C@](C)(NC(=O)[C@@H](NC(=O)[C@H](CCCCN)NC(=O)[C@H](Cc2ccccc2)NC(=O)CCNC(C)=O)C(C)C)C(=O)N[C@@H](CCCCN)C(=O)N[C@@H](CCCNC(=N)N)C(=O)N[C@@H]([C@@H](C)O)C(=O)N1)C(=O)N[C@@H](CC(C)C)C(N)=O (Ac-[βAla]FKV[S5]KRT[S5]AKYRE[Nle]L-NH2; staple (Z) 5-9)
MIC [3]: > 32 µg/mL
inhibition [1]: Active
hemolysis at 1 h, 100 µM [2]: 3.3%
Kd [6]: 1680 nM

Structure (SMILES): CCCC[C@H](NC(=O)[C@H](CCC(=O)O)NC(=O)[C@H](CCCNC(=N)N)NC(=O)[C@H](Cc1ccc(O)cc1)NC(=O)[C@H](CCCCN)NC(=O)[C@H](C)NC(=O)[C@]1(C)CCC/C=C\CCC[C@](C)(NC(=O)[C@@H](NC(=O)[C@H](CCCCN)NC(=O)[C@H](Cc2ccccc2)NC(=O)CCNC(C)=O)C(C)C)C(=O)N[C@@H](CCCNC(=N)N)C(=O)N[C@@H](CCCCN)C(=O)N[C@@H]([C@@H](C)O)C(=O)N1)C(=O)N[C@@H](CC(C)C)C(N)=O (Ac-[βAla]FKV[S5]RKT[S5]AKYRE[Nle]L-NH2; staple (Z) 5-9)
MIC [3]: > 32 µg/mL
inhibition [1]: Active
hemolysis at 1 h, 100 µM [2]: 3.3%
Kd [6]: 947 nM

Structure (SMILES): CCCC[C@H](NC(=O)[C@H](CCC(=O)O)NC(=O)[C@H](CCCNC(=N)N)NC(=O)[C@H](Cc1ccc(O)cc1)NC(=O)[C@H](CCCCN)NC(=O)CNC(=O)[C@]1(C)CCC/C=C\CCC[C@](C)(NC(=O)[C@@H](NC(=O)[C@H](CCCCN)NC(=O)[C@H](Cc2ccccc2)NC(=O)CCNC(C)=O)C(C)C)C(=O)N[C@@H](CCCNC(=N)N)C(=O)N[C@@H](CCCNC(=N)N)C(=O)N[C@@H]([C@@H](C)O)C(=O)N1)C(=O)N[C@@H](CC(C)C)C(N)=O (Ac-[βAla]FKV[S5]RRT[S5]GKYRE[Nle]L-NH2; staple (Z) 5-9)
MIC [3]: > 32 µg/mL
Activity [8]: 10%
Activity [4]: Non-Toxic
Activity [5]: 80%
inhibition [1]: Active
hemolysis at 1 h, 100 µM [2]: 0.53%
Kd [6]: 376 nM

Structure (SMILES): CCCC[C@H](NC(=O)[C@H](CCC(=O)O)NC(=O)[C@H](CCCNC(=N)N)NC(=O)[C@H](Cc1ccc(O)cc1)NC(=O)[C@H](CCCCN)NC(=O)[C@H](C)NC(=O)[C@]1(C)CCC/C=C\CCC[C@](C)(NC(=O)[C@H](CNC(=O)[C@H](CCCCN)NC(=O)[C@H](Cc2ccccc2)NC(=O)CCNC(C)=O)C(C)C)C(=O)N[C@@H](CCCNC(=N)N)C(=O)N[C@@H](CCCNC(=N)N)C(=O)N[C@@H]([C@@H](C)O)C(=O)N1)C(N)=O (Ac-[βAla]FK[X1][S5]RRT[S5]AKYRE[Nle]-NH2; staple (Z) 5-9)
MIC [3]: > 32 µg/mL
Activity [4]: Non-Toxic
Activity [5]: Active
inhibition [1]: Active
hemolysis at 1 h, 100 µM [2]: 35%
Kd [6]: 385 nM

Structure (SMILES): CCCC[C@H](NC(=O)[C@H](CCC(=O)O)NC(=O)[C@H](CCCNC(=N)N)NC(=O)[C@H](Cc1ccc(O)cc1)NC(=O)[C@H](CCCCN)NC(=O)[C@H](C)NC(=O)[C@]1(C)CCC/C=C\CCC[C@](C)(NC(=O)[C@@H](NC(=O)[C@H](CCCNC(=N)N)NC(=O)[C@H](Cc2ccccc2)NC(=O)CCNC(C)=O)C(C)C)C(=O)N[C@@H](CCCNC(=N)N)C(=O)N[C@@H](CCCNC(=N)N)C(=O)N[C@@H]([C@@H](C)O)C(=O)N1)C(=O)N[C@@H](CC(C)C)C(N)=O (Ac-[βAla]FRV[S5]RRT[S5]AKYRE[Nle]L-NH2; staple (Z) 5-9)
MIC [3]: > 32 µg/mL
Activity [8]: 20%
Activity [4]: Non-Toxic
Activity [5]: 80%
inhibition [1]: Active
hemolysis at 1 h, 100 µM [2]: 1.5%
Kd [6]: 346 nM

Further lines, with some results ahead:

inhibition [1]: Active
Structure (SMILES): CCCC[C@H](NC(=O)[C@H](CCC(=O)O)NC(=O)[C@H](CCCNC(=N)N)NC(=O)[C@H](Cc1ccc(O)cc1)NC(=O)[C@H](CCCCN)NC(=O)[C@H](C)NC(=O)[C@]1(C)CCC/C=C\CCC[C@](C)(NC(=O)[C@H](C)NC(=O)[C@H](CCCCN)NC(=O)[C@H](Cc2ccccc2)NC(=O)CCNC(C)=O)C(=O)N[C@@H](CCCNC(=N)N)C(=O)N[C@@H](CCCNC(=N)N)C(=O)N[C@@H]([C@@H](C)O)C(=O)N1)C(=O)N[C@@H](CC(C)C)C(N)=O (Ac-[βAla]FKA[S5]RRT[S5]AKYRE[Nle]L-NH2; staple (Z) 5-9)

inhibition [1]: Active
Structure (SMILES): CCCC[C@H](NC(=O)[C@H](CCC(=O)O)NC(=O)[C@H](CCCNC(=N)N)NC(=O)[C@H](Cc1ccc(O)cc1)NC(=O)[C@H](CCCCN)NC(=O)[C@@H](NC(=O)[C@]1(C)CCC/C=C\CCC[C@](C)(NC(=O)[C@H](C)NC(=O)[C@H](CCCCN)NC(=O)[C@H](Cc2ccccc2)NC(=O)CCNC(C)=O)C(=O)N[C@@H](CCCNC(=N)N)C(=O)N[C@@H](CCCNC(=N)N)C(=O)N[C@@H]([C@@H](C)O)C(=O)N1)C(C)C)C(=O)N[C@@H](CC(C)C)C(N)=O (Ac-[βAla]FKA[S5]RRT[S5]VKYRE[Nle]L-NH2; staple (Z) 5-9)

MIC [3]: > 32 µg/mL
inhibition [1]: 75%
Kd [6]: 834 nM
Structure (SMILES): CCCC[C@H](NC(=O)[C@H](CCC(=O)O)NC(=O)[C@H](CCCNC(=N)N)NC(=O)[C@H](Cc1ccc(O)cc1)NC(=O)[C@H](CCCCN)NC(=O)[C@H](C)NC(=O)[C@]1(C)CCC/C=C\CCC[C@](C)(NC(=O)[C@@H](NC(=O)[C@H](CCCCN)NC(=O)[C@H](Cc2ccccc2)NC(=O)CCNC(C)=O)C(C)C)C(=O)N[C@@H](CCCNC(=N)N)C(=O)N[C@@H](CCCNC(=N)N)C(=O)N[C@@H]([C@@H](C)O)C(=O)N1)C(=O)N[C@@H](CC(C)C)C(N)=O (Ac-[βAla]FKV[S5]RRT[S5]AKYRE[Nle]L-NH2; staple (Z) 5-9)
Activity [4]: Non-Toxic
hemolysis at 1 h, 100 µM [2]: 6.6%
Kd [7]: 1140 nM

inhibition [1]: Active
Structure (SMILES): CCCC[C@H](NC(=O)[C@H](CCC(=O)O)NC(=O)[C@H](CCCNC(=N)N)NC(=O)[C@H](Cc1ccc(O)cc1)NC(=O)[C@H](CCCNC(=N)N)NC(=O)[C@H](C)NC(=O)[C@]1(C)CCC/C=C\CCC[C@](C)(NC(=O)[C@@H](NC(=O)[C@H](CCCCN)NC(=O)[C@H](Cc2ccccc2)NC(=O)CCNC(C)=O)C(C)C)C(=O)N[C@@H](CCCNC(=N)N)C(=O)N[C@@H](CCCNC(=N)N)C(=O)N[C@@H]([C@@H](C)O)C(=O)N1)C(=O)N[C@@H](CC(C)C)C(N)=O (Ac-[βAla]FKV[S5]RRT[S5]ARYRE[Nle]L-NH2; staple (Z) 5-9)

inhibition [1]: Active
Structure (SMILES): CCCC[C@H](NC(=O)[C@H](CCC(=O)O)NC(=O)[C@H](CCCNC(=N)N)NC(=O)[C@H](Cc1ccc(O)cc1)NC(=O)[C@H](CCCCN)NC(=O)[C@H](C)NC(=O)[C@]1(C)CCC/C=C\CCC[C@](C)(NC(=O)[C@@H](NC(=O)[C@H](CCCN)NC(=O)[C@H](Cc2ccccc2)NC(=O)CCNC(C)=O)C(C)C)C(=O)N[C@@H](CCCNC(=N)N)C(=O)N[C@@H](CCCNC(=N)N)C(=O)N[C@@H]([C@@H](C)O)C(=O)N1)C(=O)N[C@@H](CC(C)C)C(N)=O (Ac-[βAla]F[Orn]V[S5]RRT[S5]AKYRE[Nle]L-NH2; staple (Z) 5-9)
